A short description of data set [1]: Vesicle; KP from the fits. The following applies: buffer.
Data set [2] in a line: Label-free MST, peptide binding to 100 nm vesicles. The following applies: 2500 nM AMP; for Kd: label-free MST (Trp fluorescence), lipid 0–1.5 mM, 10 mM TRIS pH 7.4 100 mM NaCl, mean ± SD of triplicates, '>' = minimum value; for Vesicle KP, DMPC (MST) / Vesicle KP, DMPC/PG (MST): partition coefficient from initial fluorescence on MST instrument, TRIS pH 7.4, ± SD of triplicate fits, judged unreliable by authors; for Vesicle KP, DMPC (MST): hyperbolic fit after removal of deviant points; for Vesicle KP, DMPC/PG (MST): hyperbolic fit. The source says: For KD evaluation by MST, FHot was registered during the temperature related intensity change (TRIC) phase of the MST trace (see “Methods”). The advantage of evaluating KD during the TRIC phase is that any potential effects of prolonged heating on the thermostability of the sample that may influence the binding can be avoided. The dose–response profile of MST response against lipid concentration for 1–5 largely follows a sigmoidal curve shape (Fig. 3A,B).
DMPC and DMPC:5% DMPG vesicles were prepared by solubilising a known weight of lipid in chloroform with a small amount of methanol to assist in the dissolution of the PG lipid head groups. The chloroform stock was dried in vacuo to produce a lipid film, which was further dried for additional 3 h. The lipid film was solubilised in 10 mM TRIS buffer (pH 7.4) containing 100 mM NaCl to yield a 20 mM milky lipid stock.
To produce the working vesicle stock, 1 mL of vesicle stock was extruded 20 times through a 0.1 µm filter using an Avanti Lipids mini-extruder. Vesicle size was confirmed using a Malvern Zetasizer Nano ZS (Malvern Panalytical Ltd, Malvern, United Kingdom).
(§1) All MST measurements were conducted on a NanoTemper Monolith NT. Labelfree instrument, using Monolith NT. Labelfree standard treated zero background capillaries.
(§2) A dilution series of vesicles/nanodiscs was prepared from 3 mM to 100 nM lipid concentrations, comprising 15 discrete samples, and an additional zero lipid sample, for a total of 16 lipid concentrations. Final MST samples were prepared as a combination of 25 µL lipid solution and 25 µL 5 µM peptide solution (Table S1 in the Supporting Information).
(§3) MST measurements were conducted with excitation power set to 15%, with the MST power set to high. Laser time settings were: 3 s pre-laser, 30 s on time, and 3 s after heating. FHot was taken from the T-jump period after 1.5 s and FCold taken in the second prior to IR laser activation. For the evaluation of KP, the initial fluorescence was taken as the value reported during the period before the application of the laser. The MST response and initial fluorescence were extracted directly as a text file for further processing in MATLAB.
(§4) In a typical binding experiment that yields a sigmoidal curve, the Hill equation can be fitted to yield KD:[66]6 y=y0+EMaxLipid^n/KDn+Lipid^n where y is the MST response, y0 is the MST response of the AMP in an aqueous solution (i.e., in the absence of lipids), n is the Hill coefficient, and EMax is the maximal effect of the tested substrate. The removal of outlying MST response points was necessary. Erroneous points were identified by poor MST trace shapes or higher than expected initial fluorescence that was absent in the other replicates or subsequent points, but otherwise no further treatment of data was necessary. In all instances the MST response was plotted against log lipid concentration in nM and fit to Eq. (6).
(§5) The Kp of a molecule can be determined experimentally by observing changes in fluorescent intensity in the presence of an increasing concentration of lipid, and fitting to Eq. (8)[43].8 I/Iaq=1+KpVmLipidIL/Iaq/1+KPVmLipid
(§6) In Eq. (8) the fluorescence intensity of the AMP (I) is normalised to the fluorescence intensity of the AMP in an aqueous environment (Iaq), Vm is the molar volume of the lipids and IL is the fluorescence intensity of the AMP in the lipidic environment. For Vm, the average molar volume of the lipid composition is used. In the case of the DMPC only environments it is taken as the Vm of DMPC (1.023 nm^3), and in the DMPC-DMPG mixture it is the weighted average relative to the composition used (Vm DMPG = 0.997 nm^3)[54].

The nature of data set [3]: Label-free MST, peptide binding to SMA-QA nanodiscs. As to conditions: for Kd: label-free MST, SMA-QA nanodiscs (cationic belt), 2500 nM AMP, Hill fit, mean ± SD of triplicates, '>' = minimum value; for SMA-QA KP, DMPC (MST) / SMA-QA KP, DMPC/PG (MST): partition coefficient from initial fluorescence on MST instrument, SMA-QA nanodiscs, hyperbolic fit, ± SD of triplicate fits. As for the experimental part:
The MST data for two nanodisc types, SMA and SMA-QA, were evaluated using the same methodology as the vesicle data, with FHot taken during the TRIC, and Fnorm plotted against log[lipid] and fit to Eq. (6).
The DMPC, and DMPC with 5% DMPG 21 mM vesicle stocks were used for the nanodisc preparation. The stocks were combined with an 8% SMA stock solution to yield a final SMA concentration of 1% for SMA nanodiscs. The stocks were combined with a 100 mg/mL SMA-QA stock to yield a final lipid:SMA-QA w/w ratio of 1:1.5. The combined SMA/SMA-QA and lipid mixture were incubated at room temperature overnight and purified by SEC. Fractions containing SMA/SMA-QA discs were concentrated using centrifugation filters. Total lipid concentration was determined by ^31P NMR (Figs. S4–S7). Nanodisc size was confirmed using a Malvern Zetasizer Nano ZS (Malvern Panalytical Ltd, Malvern, United Kingdom).
as §1, §2, §3, §4, §5, §6

Data set [4] in a line: SPR; KP from the fits. As to conditions: buffer. In general terms: Surface plasmon resonance follows binding to a sensor surface in real time, without labels.
[5] abbreviates: Hill fit of Fnorm in TRIC phase, insufficient curve sampling, read-out: Vesicle KD, DMPC (MST).
Where [6] appears, read: Hill fit, read-out: Vesicle KD, DMPC/PG (MST).
Where [7] appears, read: read-out: SMA-QA KD, DMPC (MST).
[8] abbreviates: read-out: SMA-QA KD, DMPC/PG (MST).

Non-standard residues stand in square brackets, D forms with d. Residues, ends and D or L forms follow the SMILES beside them.

With `NCCCC[C@@H]1NC(=O)[C@H](Cc2c[nH]c3ccccc23)NC(=O)[C@H](CCCCN)NC(=O)[C@H](Cc2c[nH]c3ccccc23)NC(=O)[C@H](CCCCN)NC(=O)[C@H](Cc2c[nH]c3ccccc23)NC1=O` [compound 4] (cyclo(WKWKWK)), the “membrane partition coefficient KP (KP x 10^3)” value was 8.56 ± 7.41 x10^3 in data set [1] (DMPC vesicles (MST)), 14.90 ± 4.84 x10^3 in data set [1] (DMPC/PG vesicles (MST)), 0.53 ± 0.01 x10^3 in data set [4] (DMPC bilayer on SPR chip) and 0.63 ± 0.03 x10^3 in data set [4] (DMPC/PG bilayer on SPR chip). For the same molecule, the values for the Kd in data set [2] (setting [5]), in data set [2] (setting [6]) and in data set [3] (setting [7]) were 282 ± 58 µM, 112 ± 29 µM and greater than 713 µM, respectively. The “Vesicle KP, DMPC (MST)” value in data set [2] is listed as 8.56 ± 7.41 × 10^3. Besides, the “Vesicle KP, DMPC/PG (MST)” value in data set [2] was 14.90 ± 4.84 × 10^3. Further, in data set [3], the “SMA-QA KP, DMPC (MST)” value was 6.15 ± 6.54 × 10^3. The “SMA-QA KP, DMPC/PG (MST)” value in data set [3] is 3.23 ± 1.87 × 10^3.
Take `N=C(N)NCCC[C@@H]1NC(=O)[C@H](CCCNC(=N)N)NC(=O)[C@H](Cc2c[nH]c3ccccc23)NC(=O)[C@H](Cc2c[nH]c3ccccc23)NC(=O)[C@H](Cc2c[nH]c3ccccc23)NC(=O)[C@H](CCCNC(=N)N)NC1=O` [compound 1] (cyclo(WWWRRR)): the “membrane partition coefficient KP (KP x 10^3)” value in data set [1] (DMPC vesicles (MST)) is 7.24 ± 1.73 x10^3; in data set [1] (DMPC/PG vesicles (MST)), 7.73 ± 1.58 x10^3; in data set [4] (DMPC bilayer on SPR chip), 6.65 ± 0.80 x10^3; in data set [4] (DMPC/PG bilayer on SPR chip) it was 12.71 ± 0.16 x10^3. In addition, the Kd in data set [2] (setting [5]) turned out to be 21 ± 3 µM; in data set [2] (setting [6]), 10 ± 5 µM; in data set [3] (setting [7]), 142 ± 17 µM; in data set [3] (setting [8]), 40 ± 5 µM. Also, the “Vesicle KP, DMPC (MST)” value in data set [2] is reported as 7.24 ± 1.73 × 10^3. For the same molecule, in data set [2], the “Vesicle KP, DMPC/PG (MST)” value is 7.73 ± 1.58 × 10^3. Further, the “SMA-QA KP, DMPC (MST)” value in data set [3] is 7.07 ± 1.78 × 10^3. Besides, the “SMA-QA KP, DMPC/PG (MST)” value in data set [3] was 7.63 ± 1.89 × 10^3.
With `N=C(N)NCCC[C@@H]1NC(=O)[C@H](Cc2c[nH]c3ccccc23)NC(=O)[C@H](CCCNC(=N)N)NC(=O)[C@H](Cc2c[nH]c3ccccc23)NC(=O)[C@H](CCCNC(=N)N)NC(=O)[C@H](Cc2c[nH]c3ccccc23)NC1=O` [compound 2] (cyclo(WRWRWR)), the “membrane partition coefficient KP (KP x 10^3)” value is given as 7.08 ± 2.32 x10^3 in data set [1] (DMPC vesicles (MST)), 16.97 ± 3.83 x10^3 in data set [1] (DMPC/PG vesicles (MST)), 1.30 ± 0.09 x10^3 in data set [4] (DMPC bilayer on SPR chip) and 3.16 ± 0.15 x10^3 in data set [4] (DMPC/PG bilayer on SPR chip). Moreover, the Kd was 73 ± 53 µM in data set [2] (setting [5]), 24 ± 7 µM in data set [2] (setting [6]), greater than 541 µM in data set [3] (setting [7]) and greater than 615 µM in data set [3] (setting [8]). Moreover, the “Vesicle KP, DMPC (MST)” value in data set [2] is listed as 7.08 ± 2.32 × 10^3. In addition, in data set [2], the “Vesicle KP, DMPC/PG (MST)” value is listed as 16.97 ± 3.83 × 10^3. Besides, the “SMA-QA KP, DMPC (MST)” value in data set [3] was 36.55 ± 11.82 × 10^3. The “SMA-QA KP, DMPC/PG (MST)” value in data set [3] is 12.62 ± 4.16 × 10^3.
`CC(C)C[C@@H]1NC(=O)[C@@H](CCCNC(=N)N)NC(=O)[C@H](CCCCN)NC(=O)[C@H](CC(N)=O)NC(=O)[C@@H](Cc2c[nH]c3ccccc23)NC(=O)[C@H](Cc2c[nH]c3ccccc23)NC1=O` [compound 5] (cyclo(LW[dW]NK[dR])): the “membrane partition coefficient KP (KP x 10^3)” value in data set [1] (DMPC vesicles (MST)) is 3.10 ± 2.17 x10^3; in data set [1] (DMPC/PG vesicles (MST)), 1.47 ± 0.07 x10^3; in data set [4] (DMPC bilayer on SPR chip), 0.28 ± 0.01 x10^3. Further, the Kd in data set [2] (setting [5]) was greater than 670 µM; in data set [2] (setting [6]) it was greater than 650 µM; in data set [3] (setting [8]) it was greater than 1000 µM. Also, in data set [2], the “Vesicle KP, DMPC (MST)” value is recorded as 3.10 ± 2.17 × 10^3. Also, the “Vesicle KP, DMPC/PG (MST)” value in data set [2] was 1.47 ± 0.07 × 10^3. The “SMA-QA KP, DMPC (MST)” value in data set [3] is reported as 17.12 ± 12.90 × 10^3. The “SMA-QA KP, DMPC/PG (MST)” value in data set [3] is listed as 3.35 ± 0.57 × 10^3.
As for `NCCCC[C@@H]1NC(=O)[C@H](CCCCN)NC(=O)[C@H](Cc2c[nH]c3ccccc23)NC(=O)[C@H](Cc2c[nH]c3ccccc23)NC(=O)[C@H](Cc2c[nH]c3ccccc23)NC(=O)[C@H](CCCCN)NC1=O` [compound 3] (cyclo(WWWKKK)), the “membrane partition coefficient KP (KP x 10^3)” value is listed as 2.55 ± 0.89 x10^3 in data set [1] (DMPC vesicles (MST)), 11.05 ± 4.49 x10^3 in data set [1] (DMPC/PG vesicles (MST)), 2.53 ± 0.08 x10^3 in data set [4] (DMPC bilayer on SPR chip) and 5.16 ± 0.34 x10^3 in data set [4] (DMPC/PG bilayer on SPR chip). Also, the Kd in data set [2] (setting [5]) is 28 ± 3 µM; in data set [2] (setting [6]) it was 17 ± 13 µM; in data set [3] (setting [7]), 267 ± 47 µM; in data set [3] (setting [8]), 145 ± 55 µM. In addition, in data set [2], the “Vesicle KP, DMPC (MST)” value is 2.55 ± 0.89 × 10^3. Besides, the “Vesicle KP, DMPC/PG (MST)” value in data set [2] is given as 11.05 ± 4.49 × 10^3. The “SMA-QA KP, DMPC (MST)” value in data set [3] was 9.16 ± 2.86 × 10^3. Besides, the “SMA-QA KP, DMPC/PG (MST)” value in data set [3] is 4.93 ± 0.81 × 10^3.
